{"source": "patent US20090134028A1", "about": "“Method of Estimating Effect of Test Chemical on Living Organisms” (Chemicals Evaluation and Research Institute, priority 2005, published 2009)", "key": {"[1]": {"system": "rat liver protein", "experiment": "Two-dimensional gel electrophoresis of liver proteins after 28-day oral administration: difference of log2(αx/αc) between spots derived from one protein", "type": "in vivo", "details": "oral 28 days", "protocol": "5-Weeks old male rats (F344, SPF strain) obtained from Charles River Laboratories Japan Inc. were divided into groups each consisting of three rats. To the rats of each chemical dosed group was forcibly administered orally a solution obtained by dissolving one of the chemicals shown in Tables 1 to 3, and to the rats of a vehicle control group was forcibly administered orally only a vehicle. The administration was conducted once a day for 28 days. On the 29th day from the start of administration, the liver of each rat was collected. A fragment was cut out from each liver and stored at −20° C. The protein collected from each rat was determined quantitatively by the Bradford method. Then, to the comparative sample collected from the chemical dosed group, the control sample collected from the vehicle control group, and a pool sample (which was a mixture of the comparative sample and the control sample) were added, at 0° C., Cy5, Cy3 and Cy2 (DMF solution, 1 ml) each of 200 pmol per […] of protein, and a labeling reaction was allowed to take place on ice for 30 minutes. After the completion of the reaction, an excessive amount of a Lysine solution (10 mM Lysis buffer solution, 1 ml) was added, followed by storage for 10 minutes to complete the reaction. Further, a x2 sample buffer [8 M urea, 4% (w/v) CHAPS, 20 mg/ml DTT, 2% (v/v) Pharmalytes] of same volume was added, followed by storage on ice for 10 minutes.\nThen, the mixture of the resulting samples or each resulting sample was individually subjected to two-dimensional gel electrophoresis.\nFirst-dimensional electrophoresis was conducted in Multiphor II (GE Helthcare Uk Ltd. Buckinghamshire, UK) using IPG (Immobilized pH Gradient) Strips (24 cm, pI3-10L) (GE Helthcare UK Ltd. Buckinghamshire, UK). A sample ([…] of protein) was added from a cup loading holder. Focussing was conducted by 40 kVh in total. After the electrophoresis, equilibration was made for 10 minutes each using a solution A obtained by adding 0.25% (w/v) of DTT to an equilibrating solution (50 mM Tris, pH 8.8, 6 M urea, 30% glycerol, 2% SDS) and a solution B obtained by adding 4.5% (w/v) of iodoacetamide to the equilibrating solution. Successively, second-dimensional electrophoresis was conducted in an Ettan DALT II system (GE Helthcare UK Ltd. Buckinghamshire, UK) using a self-made 12% uniform gel sandwiched between low-fluorescent glasses. Migration was conducted at 3 W (15° C.) overnight.\nFor each gel after migration, image capture was immediately conducted using Master Imager (GE Helthcare UK Ltd. Buckinghamshire, UK), at a wavelength corresponding to each Cy. The excitation wavelengths of Cy5, Cy3 and Cy2 were set at 625 nm, 480 nm and 425 nm, respectively, and their fluorescence wavelengths were set at 680 nm, 540 nm and 480 nm, respectively.\nIn the case of the sample obtained by mixing before electrophoresis, the recognition of spots of captured image and the quantitative determination and comparison between Cys in one gel were conducted using Decyder-DIA Soft (GE Helthcare UK Ltd. Buckinghamshire, UK). The matching of spots with the reference map of rat liver protein (2-D data base formed in-house by identifying rat liver 724 spots) was conducted using Decyder-BVA soft (GE Helthcare UK Ltd. Buckinghamshire, UK). When each sample after Cy labeling was independently subjected to electrophoresis, the quantitative determination of each spot and the matching of spots were conducted using PDQuest (Bio-Rad Laboratories, Inc.).\nFor the spots of the 127 proteins and their modified proteins, there was calculated a base 2 logarithm [log2(αx/αc)] of the ratio (αx/αc) of the expression amount (αx) of the comparative sample and the expression amount (αc) of the control sample. Then, a difference in logarithms was calculated between spots derived from one protein. The calculation of difference in logarithms was made for all combinations of spots derived from one protein. […]"}, "[2]": {"system": "liver cell", "details": "rat, in vivo"}, "[3]": {"details": "in vivo; cited from earlier work"}, "[4]": {"experiment": "Prediction of liver cell hypertrophy using SVM from post-translational modification data", "design": "species or system rat"}}, "data": [{"smiles": "O=NN1CCOCC1", "note": "[N-nitrosomorpholine]", "values": [{"measurement": "Difference of log2(αx/αc)", "setting": "[1]; ATP synthase alpha chain, spots 1064-1096, absolute value", "result": 1.824}, {"measurement": "Difference of log2(αx/αc)", "setting": "[1]; Carbonate dehydrogenase III, spots 2098-2113, absolute value", "result": 1.038}, {"measurement": "Difference of log2(αx/αc)", "setting": "[1]; Cytoskeleton I type keratin-19, spots 1174-1447, absolute value", "result": 1.451}, {"measurement": "Difference of log2(αx/αc)", "setting": "[1]; Cytoskeleton II type keratin-8, spots 1068-1481, absolute value", "result": 1.344}, {"measurement": "Difference of log2(αx/αc)", "setting": "[1]; Heat shock protein 60 kDa, spots 941-974, absolute value", "result": 1.910}, {"measurement": "Difference of log2(αx/αc)", "setting": "[1]; Hydroxyglutaryl-CoA synthase, spots 1215-1216, absolute value", "result": 0.948}, {"measurement": "Difference of log2(αx/αc)", "setting": "[1]; MAWD binding protein, spots 2032-2036, absolute value", "result": 1.256}, {"measurement": "Difference of log2(αx/αc)", "setting": "[1]; Non-muscle type caldesmon, spots 628-654, absolute value", "result": 1.618}, {"measurement": "Difference of log2(αx/αc)", "setting": "[1]; RIKEN cDNA 0610010D20, spots 1708-1753, absolute value", "result": 1.349}, {"measurement": "Difference of log2(αx/αc)", "setting": "[1]; Transketorase, spots 789-813, absolute value", "result": 1.074}, {"measurement": "Finding of hepatocyte hypertrpy", "setting": "[2]", "result": "−"}, {"measurement": "pathology of liver cell hypertrophy in the liver", "setting": "[2]", "result": "no pathology of liver cell hypertrophy was seen"}, {"measurement": "Carcinogenicity", "setting": "[3]", "result": "+"}, {"measurement": "Prediction result", "setting": "[4]", "result": "−1", "unit": "CORRECT"}]}]}
